Values quoted from earlier work in publication PMC12866175 (European journal of nuclear medicine and molecular imaging, 2021).

Assays:
tumor = conditions: human, in vivo; cited from earlier work
NETs = conditions: cited from earlier work

[^177Lu]Lu-DOTA-TATE
tumor residence time compared with [^177Lu]Lu-DOTATOC (tumor): greater tumor residence time
patients achieving stable disease (NETs): 26–55%
patients treatment refractory (NETs): 18–32%
time after starting treatment within which half progress (NETs): 2 to 3 years
